For data set [1], the system named is Staphylococcus aureus 209-P. The data set is described as follows: therapeutic effect, treatment of animals infected by Staphylococcus (Table 3 A). Format: in vivo, ICR-JCL mouse. The conditions noted are these: orally once, 10 LD50. An excerpt:
Therapeutic effect of the 9-acyl-3"-thiomethoxymethyl-SF-837 substance against bacterial infections.
A. treatment of animals infected by Staphylococcus. Animals tested: ICR-JCL mouse, 4-week old, male, 10 heads for each group.
Bacterium inoculated: Staphylococcus aureus 209-P.
Method of administration: Samples were suspended in a sterilized 2% aqueous gum arabic solution and administered once to the mice inoculated with the bacterium.

Data set [2] deals with Streptococcus pyrogenes Ti-125 Gr-A Type I. Put plainly: therapeutic effect, treatment of animals infected by Streptococcus (Table 3 B). Format: in vivo, ICR-JCL mouse. Conditions: orally once, 5LD50. How it is done:
B. treatment of animals infected by Streptococcus
Animals tested: The same as in A.
Method of administration: The same as in A.
Bacterium inoculated: Streptococcus pyrogenes Ti-125 Gr-A Type I.
Inoculum size: 1× 10^7 cells/0.5 ml/mouse(5LD50).

A short description of data set [3]: acute toxicity. The data set is classed as in vivo, ICR-JCL mice. The conditions noted are these: intraperitoneal, male mice, dead/tested. The source says:
The acute toxicity of the 9-acyl-3"-thiomethoxymethyl-SF-837 substance
Animals tested: ICR-JCL mice, male.
Samples: Each substance was suspended in a 5% aqueous arabic gum solution.
Method of administration: Intraperitoneal injection.

The subject of data set [4] is Escherichia coli. Put plainly: antimicrobial spectrum, minimal inhibitory concentration. Format: cell-based. An excerpt: (§1) The antimicrobial spectrum of the 9-acyl-3"-thiomethoxymethyl-SF-837 substance obtained according to the present invention is shown in Table 1.
(§2) The antimicrobial spectrum of the 9-acetyl- and 9-propionyl-3"-thiomethoxymethyl-SF-837 substance made according to the invention.

The test system of data set [5] is Mycobacterium 607. Described as above. The data set is classed as cell-based.
Source text: as §1, §2

The subject of data set [6] is Mycoplasma gallisepticum CH3T. Described as above. Conditions: Mycoplasmoides gallisepticum. The data set is classed as cell-based.
Source text: as §1, §2

Data set [7] relates to Mycoplasma gallisepticum KP-13. Described as above. Conditions: Mycoplasmoides gallisepticum, KP13. Format: cell-based.
Source text: as §1, §2

The test system of data set [8] is Mycoplasma gallisepticum KP-3. The description is as above. Format: cell-based. The conditions noted are these: Mycoplasmoides gallisepticum, KP3.
Source text: as §1, §2

Data set [9] deals with Mycoplasma gallisepticum S-15P. The description is as above. Format: cell-based. Conditions: Mycoplasmoides gallisepticum, read-out: Minimal Inhibitory Concentration.
Source text: as §1, §2

In data set [10] the test system is Mycoplasma gallisepticum S-35P. The description is as above. The data set is classed as cell-based. The conditions noted are these: Mycoplasmoides gallisepticum, read-out: Minimal Inhibitory Concentration.
Source text: as §1, §2

Data set [11] deals with Mycoplasma gallisepticum S-6. The data set is described as above. The conditions noted are these: Mycoplasmoides gallisepticum, S6. Format: cell-based.
Source text: as §1, §2

Data set [12] deals with Neisseria gonorrhoeae Megurita. The data set is described as above. The data set is classed as cell-based.
Source text: as §1, §2

Data set [13] relates to Neisseria meningitidis. The data set is described as above. The data set is classed as cell-based.
Source text: as §1, §2

Data set [14] relates to Staphylococcus aureus. Described as above. Format: cell-based.
Source text: as §1, §2

In data set [15] the test system is Vibrio coli 34E. The description is as above. The data set is classed as cell-based. Conditions: Campylobacter coli.
Source text: as §1, §2

Data set [16] relates to Vibrio coli SD-358. Described as above. Format: cell-based. The conditions noted are these: Campylobacter coli, SD358.
Source text: as §1, §2

In data set [17] the test system is Vibrio coli SD-362. The data set is described as above. Format: cell-based. The conditions noted are these: Campylobacter coli, SD362.
Source text: as §1, §2

Data set [18] has as its system Mycoplasma gallisepticum T-4AT (tyrosine-resistant). The data set is described as follows: microbe, parasite or virus in culture. Conditions: Mycoplasmoides gallisepticum, read-out: Minimal Inhibitory Concentration. The data set is classed as cell-based.
Source text: as §1, §2

In data set [19] the test system is Staphylococcus aureus Strain 209-P. The data set is described as follows: therapeutic effect on staphylococcal infection of mice (Table 2). The conditions noted are these: 350mg/Kg oral; intraperitoneal infection by Staphylococcus aureus 209-P. Format: in vivo. The source says:
Since the 9-acyl-3"-thiomethoxymethyl-SF-837 substance is inhibitory against Gram-positive bacteria as the SF-837 substance is, it is as well available as an antimicrobial agent. Particularly, it is notable that the in vitro antimicrobial activity of the 9-acyl-3"-thiomethoxymethyl-SF-837 substance of the present invention against Escherichia coli, Mycobacterium, Mycoplasma, and macrolide-resistant Mycoplasma is higher than that of the SF-837 substance. Furthermore, the results of the therapeutic tests using the mice infected by Staphylococcus aureus Strain 209 P was better with the said 9-acyl-3"-thiomethoxymethyl-SF-837 substance than with its parent substance (see Table 2).
Therapeutic effect of the 9-acyl-3"thiomethoxy-methyl-SF-837 substance made according to the invention on the staphylococcal infection of mice in laboratory*).
*)Infection of mouse intraperitoneally by Staphylococcus aureus Strain

Where [20] appears, read: S15P, Mycoplasma gallisepticum S-15P.
The mark [21] stands for this setting: S35P, Mycoplasma gallisepticum S-35P.

The text below walks through data of patent US4029881A, “Antibiotic 9-acyl-3"-thiomethoxymethyl-SF-837 composition and process for preparing the same” (Meiji Seika Co., Ltd., priority 1972, dated 1977).

Converted amounts (≈) assume the structure as drawn. Like-named read-outs stand apart in the source and are kept apart here.

`CCC(=O)OC1CC(=O)OC(C)CC=CC=CC(OC(C)=O)C(C)CC(CC=O)C(OC2OC(C)C(OC3CC(C)(O)C(OC(=O)CC)C(C)O3)C(N(C)C)C2O)C1OC` (stereo not shown) [9-Acetyl-SF-837, reference compound]: the Survival rate is reported as 80% in data set [1] (150 mg/Kg); 100% in data set [1] (200 mg/Kg); 100% in [1] (350 mg/Kg); 100% in data set [1] (400 mg/Kg); 100% in data set [2] (100 mg/Kg); 100% in [2] (200 mg/Kg). In addition, the Survival rate in data set [2] (300 mg/Kg) and in data set [2] (400 mg/Kg) was 100% each time. In addition, the Mortality in data set [3] (2,000 mg/Kg) is reported as 0/3; in data set [3] (4,000 mg/Kg), 1/3.

With `CCC(=O)OC1C=CC=CCC(C)OC(=O)CC(OC(=O)CC)C(OC)C(OC2OC(C)C(OC3CC(C)(OCSC)C(OC(=O)CC)C(C)O3)C(N(C)C)C2O)C(CC=O)CC1C` (stereo not shown) [9-propionyl-3"-thiomethoxymethyl-SF-837], the MIC in data set [4] was 50 µg/mL (≈ 53.8 µM); in [5], 6.25 µg/mL (≈ 6.72 µM); in data set [6], < 0.1 µg/mL; in data set [7], < 0.1 µg/mL; in data set [8], < 0.1 µg/mL; in data set [9] (setting [20]), < 0.1 µg/mL. The MIC in data set [10] (setting [21]) was < 0.1 µg/mL; in data set [11], < 0.1 µg/mL; in data set [12] it was 100 µg/mL (≈ 108 µM); in [13], 6.25 µg/mL (≈ 6.72 µM); in [14], 0.78 µg/mL (≈ 0.839 µM); in [15] it was 25 µg/mL (≈ 26.9 µM). In addition, the MIC is > 50 µg/mL in data set [16], 25 µg/mL (≈ 26.9 µM) in [17] and 12.5 µg/mL (≈ 13.4 µM) in [18]. The “Survival rate in a week after oral administration” value (from here on “Survival rate in a week”) in [19] was determined as 90%. Besides, the Survival rate in [1] (150 mg/Kg) was determined as 30%; in data set [1] (200 mg/Kg) it was 70%; in [1] (350 mg/Kg), 90%; in data set [1] (400 mg/Kg), 100%; in data set [2] (100 mg/Kg) it was 100%; in data set [2] (200 mg/Kg), 100%. Also, the Survival rate in data set [2] (300 mg/Kg) and in data set [2] (400 mg/Kg) was 100% throughout. Moreover, the Mortality in [3] (2,000 mg/Kg) and in data set [3] (4,000 mg/Kg) was 0/3 in each case.

In the case of `CCC(=O)OC1CC(=O)OC(C)CC=CC=CC(OC(C)=O)C(C)CC(CC=O)C(OC2OC(C)C(OC3CC(C)(OCSC)C(OC(=O)CC)C(C)O3)C(N(C)C)C2O)C1OC` (stereo not shown) [9-acetyl-3"-thiomethoxymethyl-SF-837], the MIC in [4] was 50 µg/mL (≈ 54.6 µM); in [5], 6.25 µg/mL (≈ 6.82 µM); in data set [6], < 0.1 µg/mL; in data set [7], < 0.1 µg/mL; in [8], < 0.1 µg/mL; in data set [9] (setting [20]), < 0.1 µg/mL. Also, the MIC in data set [10] (setting [21]) is < 0.1 µg/mL; in [11], < 0.1 µg/mL; in data set [12] it was 100 µg/mL (≈ 109 µM); in [13], 6.25 µg/mL (≈ 6.82 µM); in data set [14] it was 0.78 µg/mL (≈ 0.851 µM); in [15] it was 25 µg/mL (≈ 27.3 µM). Further, the MIC in data set [16] is > 50 µg/mL; in data set [17], 25 µg/mL (≈ 27.3 µM); in data set [18] it was 12.5 µg/mL (≈ 13.6 µM). Also, in data set [19], the “Survival rate in a week” value is listed as 90%. The Survival rate in [1] (150 mg/Kg) was 30%; in data set [1] (200 mg/Kg), 80%; in [1] (350 mg/Kg), 90%; in [1] (400 mg/Kg), 100%; in data set [2] (100 mg/Kg), 100%; in [2] (200 mg/Kg), 100%. Moreover, the Survival rate in data set [2] (300 mg/Kg) and in data set [2] (400 mg/Kg) was 100% in each case. Further, the Mortality in [3] (2,000 mg/Kg) and in [3] (4,000 mg/Kg) was 0/3 each time.

Consider `CCC(=O)OC1CC(=O)OC(C)CC=CC=CC(O)C(C)CC(CC=O)C(OC2OC(C)C(OC3CC(C)(O)C(OC(=O)CC)C(C)O3)C(N(C)C)C2O)C1OC` (stereo not shown) [SF-837], for which the MIC in [4] was 100 µg/mL (≈ 123 µM); in [5], 25 µg/mL (≈ 30.7 µM); in data set [6], < 0.05 µg/mL; in [7], < 0.05 µg/mL; in data set [8], < 0.05 µg/mL; in [9] it was 0.05 µg/mL (≈ 0.0614 µM). The MIC is 0.05 µg/mL (≈ 0.0614 µM) in [10]; 0.1 µg/mL (≈ 0.123 µM) in data set [11]; 25 µg/mL (≈ 30.7 µM) in data set [12]; 6.25 µg/mL (≈ 7.68 µM) in data set [13]; 0.78 µg/mL (≈ 0.958 µM) in data set [14]; 12.5 µg/mL (≈ 15.4 µM) in data set [15]. The MIC is > 50 µg/mL in data set [16], > 50 µg/mL in [17] and > 100 µg/mL in data set [18]. In addition, the “Survival rate in a week” value in data set [19] came to 37.5%. Also, the Survival rate came out at 20% in data set [1] (150 mg/Kg); 40% in [1] (200 mg/Kg); 60% in data set [1] (350 mg/Kg); 90% in data set [1] (400 mg/Kg); 70% in [2] (100 mg/Kg); 90% in data set [2] (200 mg/Kg). Moreover, the Survival rate in data set [2] (300 mg/Kg) and in data set [2] (400 mg/Kg) was 100% each time. For the same molecule, the Mortality in data set [3] (2,000 mg/Kg) and in data set [3] (4,000 mg/Kg) was 2/3 each time.
